Measurements from ChEMBL document CHEMBL4814069, “Nucleotide analogues containing a pyrrolidine, piperidine or piperazine ring: Synthesis and evaluation of inhibition of plasmodial and human 6-oxopurine phosphoribosyltransferases and in vitro antimalarial activity” (Eur J Med Chem, 2021).
Blank lines part the entries; values can stand above or below the molecule they belong to.

Assays:
[1] = Inhibition of Plasmodium falciparum HGXPRT using PRib-PP as substrate by Hanes-plot based method
[2] = Inhibition of Plasmodium vivax HGPRT using PRib-PP as substrate by Hanes-plot based method
[3] = Selectivity index, ratio of Ki for human HGPRT to Ki for Plasmodium falciparum HGXPRT; assay type: toxicity
[4] = Selectivity index, ratio of Ki for human HGPRT to Ki for Plasmodium vivax HGPRT; assay type: toxicity
[5] = molecular target: T1, Hypoxanthine-guanine phosphoribosyltransferase (Homo sapiens, UniProt P00492); test: Inhibition of human HGPRT using PRib-PP as substrate by Hanes-plot based method
T1 sequence (P00492 whole entry): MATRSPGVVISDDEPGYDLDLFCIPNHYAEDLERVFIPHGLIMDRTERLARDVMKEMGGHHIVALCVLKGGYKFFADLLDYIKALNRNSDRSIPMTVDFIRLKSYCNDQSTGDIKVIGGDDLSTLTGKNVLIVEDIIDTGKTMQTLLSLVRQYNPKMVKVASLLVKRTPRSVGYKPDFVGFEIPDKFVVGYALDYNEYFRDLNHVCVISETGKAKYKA

NHDF [6] = test: Cytotoxicity against human NHDF cells assessed as reduction in cell viability at 10 uM incubated for 72 hrs by Celltiter-Glo assay; assay type: cell-based
HeLa S3 = test: Cytotoxicity against human HeLa S3 cells assessed as reduction in cell viability at 10 uM incubated for 72 hrs by Celltiter-Glo assay; assay type: cell-based; conditions: hela s3, 72 h
[7] = Selectivity for antimalarial activity against Plasmodium falciparum over cytotoxicity against human HepG2 cells; assay type: toxicity, cell-based; conditions: read-out: Selectivity Index
Plasmodium falciparum [8] = test: Antimalarial activity against asexual stage of chloroquine-resistant Plasmodium falciparum W2 infected in human erythrocytes assessed as parasite growth inhibition measured after 96 hrs by [3H]-hypoxanthine incorporation assay; assay type: functional, organism-based
HepG2 [9] = test: Cytotoxicity against human HepG2 cells assessed as reduction in cell viability at 50 uM incubated for 72 hrs by Celltiter-Glo assay; assay type: cell-based; conditions: hepg2, 72 h
[10] = Selectivity for antimalarial activity against Plasmodium falciparum over cytotoxicity against human NHDF cells; assay type: toxicity, cell-based; conditions: read-out: Selectivity Index
[11] = Cytotoxicity against human HepG2 cells assessed as cell viability at 100 uM incubated for 72 hrs by Celltiter-Glo assay; assay type: cell-based; conditions: read-out: Activity
[12] = Cytotoxicity against human NHDF cells assessed as cell viability at 100 uM incubated for 72 hrs by Celltiter-Glo assay; assay type: cell-based; conditions: read-out: Activity
HepG2 [13] = test: Cytotoxicity against human HepG2 cells assessed as reduction in cell viability at 10 uM incubated for 72 hrs by Celltiter-Glo assay; assay type: cell-based; conditions: hepg2, 72 h
CCRF-CEM = test: Cytotoxicity against human CCRF-CEM cells assessed as reduction in cell viability at 10 uM incubated for 72 hrs by Celltiter-Glo assay; assay type: cell-based
HL-60 = test: Cytotoxicity against human HL60 cells assessed as reduction in cell viability at 10 uM incubated for 72 hrs by Celltiter-Glo assay; assay type: cell-based; conditions: hl-60, 72 h
Plasmodium falciparum [14] = test: Antimalarial activity against asexual stage of chloroquine-sensitive Plasmodium falciparum D6 infected in human erythrocytes assessed as inhibition of parasite growth measured after 96 hrs by [3H]-hypoxanthine incorporation assay; assay type: functional, organism-based
NHDF [15] = test: Cytotoxicity against human NHDF cells assessed as reduction in cell viability incubated for 72 hrs by Celltiter-Glo assay; assay type: cell-based
HepG2 [16] = test: Cytotoxicity against human HepG2 cells assessed as reduction in cell viability incubated for 72 hrs by Celltiter-Glo assay; assay type: cell-based; conditions: HepG2, 72 h
NHDF [17] = test: Cytotoxicity against human NHDF cells assessed as reduction in cell viability at 50 uM incubated for 72 hrs by Celltiter-Glo assay; assay type: cell-based

Ki [5]: 73 µM
SMILES: Nc1nc2c(ncn2[C@H]2CCN(C(=O)CP(=O)(O)O)C2)c(=O)[nH]1
Ki [1]: 0.4 µM
Ki [2]: 2.6 µM
Ratio Ki [3]: 182
Ratio Ki [4]: 28

SMILES: O=c1[nH]cnc2c1ncn2CCN(CCOCCP(=O)(O)O)CCP(=O)(O)O
Ki [1]: 0.2 µM
Ki [2]: 0.04 µM

SMILES: Nc1nc2c(ncn2CCN(CCOCCP(=O)(O)O)CCP(=O)(O)O)c(=O)[nH]1
Ki [1]: 0.19 µM
Ki [2]: 0.03 µM
Ratio Ki [3]: 0.45
Ratio Ki [4]: 2.725

SMILES: Nc1nc2c(ncn2CC2CCCN(CP(=O)([O-])[O-])C2)c(=O)[nH]1.[Na+].[Na+] (stereo not given)
Ki [1]: 2 µM
Ki [2]: 29 µM
Ratio Ki [3]: 3.5
Ratio Ki [4]: 0.24
Ki [5]: 7 µM

SMILES: Nc1nc2c(ncn2CC2CN(CCP(=O)([O-])[O-])CCN2CCP(=O)([O-])[O-])c(=O)[nH]1.[Na+].[Na+].[Na+].[Na+] (stereo not given)
Ki [1]: 2 µM
Ki [2]: 6 µM
Ratio Ki [3]: 0.075
Ratio Ki [4]: 0.025
Ki [5]: 0.15 µM

SMILES: O=c1[nH]cnc2c1ncn2CC1CN(CCP(=O)([O-])[O-])CCN1CCP(=O)([O-])[O-].[Na+].[Na+].[Na+].[Na+] (stereo not given)
Ki [1]: 3 µM
Ki [2]: 37 µM
Ratio Ki [3]: 0.14
Ratio Ki [4]: 0.012
Ki [5]: 0.43 µM

SMILES: CCOC(=O)[C@H](Cc1ccccc1)NP(=O)(CCN1CCC[C@H]1Cn1cnc2c(=O)[nH]cnc21)N[C@@H](Cc1ccccc1)C(=O)OCC
Activity (NHDF [6]): Non-Toxic
Activity (HeLa S3): Non-Toxic
selectivity ratio [7]: > 29
IC50 (Plasmodium falciparum [8]): 6.3 µM
Activity (HepG2 [9]): Non-Toxic
selectivity ratio [10]: > 29
viability at 72 h, 100 µM [11]: 91%
viability at 72 h, 100 µM [12]: 117%
Activity (HepG2 [13]): Non-Toxic
Activity (CCRF-CEM): Non-Toxic
Activity (HL-60): Non-Toxic
IC50 (Plasmodium falciparum [14]): 4.1 µM
IC50 (NHDF [15]): 184 µM
IC50 (HepG2 [16]): > 250 µM
Activity (NHDF [17]): Non-Toxic

SMILES: CCOC(=O)[C@H](Cc1ccccc1)NP(=O)(CCN1CCC[C@@H]1Cn1cnc2c(=O)[nH]cnc21)N[C@@H](Cc1ccccc1)C(=O)OCC
Activity (NHDF [6]): Non-Toxic
Activity (HeLa S3): Non-Toxic
IC50 (Plasmodium falciparum [8]): 9.1 µM
Activity (HepG2 [9]): Non-Toxic
viability at 72 h, 100 µM [11]: 98%
viability at 72 h, 100 µM [12]: 106%
Activity (HepG2 [13]): Non-Toxic
Activity (CCRF-CEM): Non-Toxic
Activity (HL-60): Non-Toxic
IC50 (Plasmodium falciparum [14]): 7.1 µM
Activity (NHDF [17]): Non-Toxic

SMILES: O=c1[nH]cnc2c1ncn2C[C@@H]1CCCN1CCP(=O)([O-])[O-].[Na+].[Na+]
Ki [1]: 44 µM
Ki [2]: > 50 µM
Ratio Ki [3]: > 1.1
Ki [5]: > 50 µM

SMILES: Nc1nc2c(ncn2C[C@@H]2CCCN2CCP(=O)([O-])[O-])c(=O)[nH]1.[Na+].[Na+]
Ki [1]: 5 µM
Ki [2]: 20 µM
Ratio Ki [3]: 1.8
Ratio Ki [4]: 0.45
Ki [5]: 9 µM

SMILES: Nc1nc2c(ncn2C[C@H]2CCCN2CCP(=O)([O-])[O-])c(=O)[nH]1.[Na+].[Na+]
Ki [1]: 30 µM
Ki [2]: 39 µM
Ratio Ki [3]: > 1.7
Ratio Ki [4]: > 1.3
Ki [5]: > 50 µM

SMILES: CCOC(=O)[C@H](Cc1ccccc1)NP(=O)(CN1CCCC(Cn2cnc3c(=O)[nH]cnc32)C1)N[C@@H](Cc1ccccc1)C(=O)OCC (stereo not given in full)
Activity (NHDF [6]): Non-Toxic
Activity (HeLa S3): Non-Toxic
IC50 (Plasmodium falciparum [8]): 11.7 µM
Activity (HepG2 [9]): Non-Toxic
viability at 72 h, 100 µM [11]: 105%
viability at 72 h, 100 µM [12]: 107%
Activity (HepG2 [13]): Non-Toxic
Activity (CCRF-CEM): Non-Toxic
Activity (HL-60): Non-Toxic
IC50 (Plasmodium falciparum [14]): 7.9 µM
Activity (NHDF [17]): Non-Toxic

SMILES: CCOC(=O)[C@H](Cc1ccccc1)NP(=O)(CN1CCCC(Cn2cnc3c(=O)[nH]c(N)nc32)C1)N[C@@H](Cc1ccccc1)C(=O)OCC (stereo not given in full)
Activity (NHDF [6]): Non-Toxic
Activity (HeLa S3): Non-Toxic
IC50 (Plasmodium falciparum [8]): 3.9 µM
Activity (HepG2 [9]): Non-Toxic
viability at 72 h, 100 µM [11]: 103%
viability at 72 h, 100 µM [12]: 103%
Activity (HepG2 [13]): Non-Toxic
Activity (CCRF-CEM): Non-Toxic
Activity (HL-60): Non-Toxic
IC50 (Plasmodium falciparum [14]): 11.7 µM
Activity (NHDF [17]): Non-Toxic

SMILES: O=c1[nH]cnc2c1ncn2C[C@H]1CCCN1CCP(=O)([O-])[O-].[Na+].[Na+]
Ki [1]: 15 µM
Ki [2]: > 50 µM
Ratio Ki [3]: > 3.3
Ki [5]: > 50 µM

SMILES: CCOC(=O)[C@H](Cc1ccccc1)NP(=O)(CCN1CCN(CP(=O)(N[C@@H](Cc2ccccc2)C(=O)OCC)N[C@@H](Cc2ccccc2)C(=O)OCC)CC1Cn1cnc2c(=O)[nH]cnc21)N[C@@H](Cc1ccccc1)C(=O)OCC (stereo not given in full)
Activity (NHDF [6]): Non-Toxic
Activity (HeLa S3): Non-Toxic
IC50 (Plasmodium falciparum [8]): 2.7 µM
Activity (HepG2 [9]): Non-Toxic
viability at 72 h, 100 µM [11]: 82%
viability at 72 h, 100 µM [12]: 3%
Activity (HepG2 [13]): Non-Toxic
Activity (CCRF-CEM): Non-Toxic
Activity (HL-60): Non-Toxic
IC50 (Plasmodium falciparum [14]): 5.1 µM
Activity (NHDF [17]): Non-Toxic

SMILES: CCOC(=O)[C@H](Cc1ccccc1)NP(=O)(CCN1CCN(CP(=O)(N[C@@H](Cc2ccccc2)C(=O)OCC)N[C@@H](Cc2ccccc2)C(=O)OCC)CC1Cn1cnc2c(=O)[nH]c(N)nc21)N[C@@H](Cc1ccccc1)C(=O)OCC (stereo not given in full)
Activity (NHDF [6]): Non-Toxic
Activity (HeLa S3): Non-Toxic
IC50 (Plasmodium falciparum [8]): 32.4 µM
Activity (HepG2 [9]): Non-Toxic
viability at 72 h, 100 µM [11]: 104%
viability at 72 h, 100 µM [12]: 14%
Activity (HepG2 [13]): Non-Toxic
Activity (CCRF-CEM): Non-Toxic
Activity (HL-60): Non-Toxic
IC50 (Plasmodium falciparum [14]): 55.4 µM
Activity (NHDF [17]): Non-Toxic

SMILES: O=c1[nH]cnc2c1ncn2CC1CCCN(CP(=O)([O-])[O-])C1.[Na+].[Na+] (stereo not given)
Ki [1]: 17 µM
Ki [2]: 72 µM
Ratio Ki [3]: > 2.9
Ratio Ki [4]: > 0.7
Ki [5]: > 50 µM

SMILES: CCOC(=O)[C@H](Cc1ccccc1)NP(=O)(CCN1CCC[C@H]1Cn1cnc2c(=O)[nH]c(N)nc21)N[C@@H](Cc1ccccc1)C(=O)OCC
Activity (NHDF [6]): Non-Toxic
Activity (HeLa S3): Non-Toxic
selectivity ratio [7]: > 35
IC50 (Plasmodium falciparum [8]): 2.5 µM
Activity (HepG2 [9]): Non-Toxic
selectivity ratio [10]: > 35
viability at 72 h, 100 µM [11]: 98%
viability at 72 h, 100 µM [12]: 97%
Activity (HepG2 [13]): Non-Toxic
Activity (CCRF-CEM): Non-Toxic
Activity (HL-60): Non-Toxic
IC50 (Plasmodium falciparum [14]): 7.2 µM
IC50 (NHDF [15]): 306 µM
IC50 (HepG2 [16]): > 250 µM
Activity (NHDF [17]): Non-Toxic

Ki [5]: > 74 µM
SMILES: O=c1[nH]cnc2c(C3=NCCN3CCCP(=O)(O)O)c[nH]c12
Ki [1]: 4.7 µM
Ki [2]: 6 µM
Ratio Ki [3]: > 16
Ratio Ki [4]: > 12

SMILES: CCOC(=O)[C@H](Cc1ccccc1)NP(=O)(CCN1CCC[C@@H]1Cn1cnc2c(=O)[nH]c(N)nc21)N[C@@H](Cc1ccccc1)C(=O)OCC
Activity (NHDF [6]): Non-Toxic
Activity (HeLa S3): Non-Toxic
IC50 (Plasmodium falciparum [8]): 8 µM
Activity (HepG2 [9]): Non-Toxic
viability at 72 h, 100 µM [11]: 98%
viability at 72 h, 100 µM [12]: 103%
Activity (HepG2 [13]): Non-Toxic
Activity (CCRF-CEM): Non-Toxic
Activity (HL-60): Non-Toxic
IC50 (Plasmodium falciparum [14]): 12.1 µM
Activity (NHDF [17]): Non-Toxic
